Assay results from ChEMBL document CHEMBL1201862, “PubChem BioAssay data set” (2004).
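These data come from cells grown in 96-well plates and exposed to compound for 48 hours at five concentrations. At the GI50, growth is halved.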 The source made the active and inactive calls. Cut-off read from the data, not from the text of the source: active = GI50 up to about 1.1 µM and inactive = higher.

Experiments:
Experiment in all cases: growth of human tumour cells (NCI), 48 h
A498 = tested on: A498
CAKI-1 = tested on: CAKI-1
CCRF-CEM = tested on: CCRF-CEM
HCT-15 = tested on: HCT-15
HT-29 = tested on: HT-29
KM-20L2 = tested on: KM-20L2
KM12 = tested on: KM12
M14 = tested on: M14
NCI-H226 = tested on: NCI-H226
NCI-H23 = tested on: NCI-H23
NCI-H460 = tested on: NCI-H460
OVCAR-3 = tested on: OVCAR-3
OVCAR-4 = tested on: OVCAR-4
OVCAR-5 = tested on: OVCAR-5
SW-620 = tested on: SW-620
TK-10 = tested on: TK-10
DMS-273 = tested on: DMS-273
RPMI-8226 = tested on: RPMI-8226
SR = tested on: SR
NCI/ADR-RES = tested on: NCI/ADR-RES

Structure (SMILES)	GI50 (A498)	GI50 (CAKI-1)	GI50 (CCRF-CEM)	GI50 (HCT-15) [µM]	GI50 (HT-29)	GI50 (KM-20L2)	GI50 (KM12)	GI50 (M14)	GI50 (NCI-H226)	GI50 (NCI-H23)	GI50 (NCI-H460)	GI50 (OVCAR-3)	GI50 (OVCAR-4)	GI50 (OVCAR-5)	GI50 (SW-620)	GI50 (TK-10)	GI50 (DMS-273)	GI50 (RPMI-8226)	GI50 (SR)	GI50 (NCI/ADR-RES)
Nn1c(S)nnc1NNC(=O)C(=O)Nc1cc(Cl)c(Cl)cc1Cl	> 100 µM (inactive)	> 100 µM (inactive)	20 µM (inactive)	> 100	> 100 µM (inactive)	> 100 µM (inactive)	> 100 µM (inactive)	> 100 µM (inactive)	> 100 µM (inactive)	> 100 µM (inactive)	> 100 µM (inactive)	> 100 µM (inactive)	> 100 µM (inactive)	> 100 µM (inactive)	> 100 µM (inactive)	> 100 µM (inactive)	–	–	–	–
CCOC(=O)C(=Cc1ccc(C(=O)OC)cc1)C(=O)OCC	13.2 µM (inactive)	1.67 µM (inactive)	1.58 µM (inactive)	2.37	3.21 µM (inactive)	0.845 µM (active)	2.92 µM (inactive)	1.69 µM (inactive)	2.08 µM (inactive)	1.76 µM (inactive)	21.1 µM (inactive)	3.41 µM (inactive)	3.78 µM (inactive)	7.16 µM (inactive)	2.24 µM (inactive)	2.88 µM (inactive)	1.71 µM (inactive)	1.37 µM (inactive)	–	–
N/N=C(\CC1OC(=O)c2ccccc21)c1ccco1 (stereo unspecified)	> 100 µM (inactive)	> 100 µM (inactive)	59.2 µM (inactive)	> 100	> 100 µM (inactive)	> 100 µM (inactive)	> 100 µM (inactive)	> 100 µM (inactive)	> 100 µM (inactive)	> 100 µM (inactive)	> 100 µM (inactive)	> 100 µM (inactive)	> 100 µM (inactive)	> 100 µM (inactive)	> 100 µM (inactive)	> 100 µM (inactive)	> 100 µM (inactive)	–	–	–
CC(C)C1CO[C@]2(C)CCC(=O)N12 (stereo partly specified)	–	> 100 µM (inactive)	> 100 µM (inactive)	> 100	> 100 µM (inactive)	> 100 µM (inactive)	> 100 µM (inactive)	> 100 µM (inactive)	> 100 µM (inactive)	> 100 µM (inactive)	> 100 µM (inactive)	> 100 µM (inactive)	> 100 µM (inactive)	–	> 100 µM (inactive)	> 100 µM (inactive)	–	> 100 µM (inactive)	> 100 µM (inactive)	–
O=C1Nc2cc(Cl)ccc2N=CC1NC(=O)C(c1ccccc1)c1ccccc1Cl (stereo unspecified)	> 100 µM (inactive)	> 100 µM (inactive)	> 100 µM (inactive)	> 100	> 100 µM (inactive)	> 100 µM (inactive)	> 100 µM (inactive)	> 100 µM (inactive)	> 100 µM (inactive)	> 100 µM (inactive)	57.9 µM (inactive)	> 100 µM (inactive)	> 100 µM (inactive)	> 100 µM (inactive)	> 100 µM (inactive)	> 100 µM (inactive)	> 100 µM (inactive)	> 100 µM (inactive)	–	–
Cn1c(=O)c2[nH]cnc2n(CC(N)=O)c1=O	> 100 µM (inactive)	> 100 µM (inactive)	> 100 µM (inactive)	> 100	> 100 µM (inactive)	–	> 100 µM (inactive)	> 100 µM (inactive)	–	> 100 µM (inactive)	> 100 µM (inactive)	> 100 µM (inactive)	–	–	> 100 µM (inactive)	> 100 µM (inactive)	> 100 µM (inactive)	> 100 µM (inactive)	> 100 µM (inactive)	–
C/C(=N\NS(=O)(=O)c1ccc(C)cc1)C(CN1CCOCC1)C(c1ccccc1)c1c(O)c2ccccc2oc1=O (stereo unspecified)	> 100 µM (inactive)	> 100 µM (inactive)	37.5 µM (inactive)	> 100	> 100 µM (inactive)	> 100 µM (inactive)	> 100 µM (inactive)	> 100 µM (inactive)	> 100 µM (inactive)	> 100 µM (inactive)	> 100 µM (inactive)	89.5 µM (inactive)	> 100 µM (inactive)	> 100 µM (inactive)	30.6 µM (inactive)	> 100 µM (inactive)	–	35.2 µM (inactive)	19.7 µM (inactive)	–
COC(=O)c1ccc(OCc2ccc3oc(=O)c(-c4ccccc4)nc3c2)cc1	–	> 100 µM (inactive)	23.5 µM (inactive)	> 100	> 100 µM (inactive)	–	> 100 µM (inactive)	> 100 µM (inactive)	> 100 µM (inactive)	71.3 µM (inactive)	> 100 µM (inactive)	44.9 µM (inactive)	> 100 µM (inactive)	> 100 µM (inactive)	57.3 µM (inactive)	44 µM (inactive)	> 100 µM (inactive)	34.9 µM (inactive)	30.8 µM (inactive)	–
COc1ccc(-c2cc(Cc3cccs3)c(=O)[nH]n2)cc1	–	–	–	49	96.2 µM (inactive)	85.5 µM (inactive)	> 100 µM (inactive)	–	> 100 µM (inactive)	56.8 µM (inactive)	–	29.6 µM (inactive)	–	> 100 µM (inactive)	> 100 µM (inactive)	> 100 µM (inactive)	> 100 µM (inactive)	–	–	–
CCN(CC)C(=O)COc1cc2c(O)c3c(O)c(C)c4c(c13)C(=O)C(C)(OC=CC(OC)C(C)C(OC(C)=O)C(C)C(O)C(C)C(O)C(C)C=CC=C(C)C(=O)N2)O4 (stereo unspecified)	> 100 µM (inactive)	> 100 µM (inactive)	> 100 µM (inactive)	> 100	> 100 µM (inactive)	–	> 100 µM (inactive)	> 100 µM (inactive)	> 100 µM (inactive)	> 100 µM (inactive)	> 100 µM (inactive)	> 100 µM (inactive)	> 100 µM (inactive)	> 100 µM (inactive)	> 100 µM (inactive)	> 100 µM (inactive)	–	37.4 µM (inactive)	> 100 µM (inactive)	> 100 µM (inactive)
CN1CCN(CCNc2ccc(CO)c3sc4ccccc4c(=O)c23)CC1	–	11.9 µM (inactive)	4.34 µM (inactive)	6.32	4.15 µM (inactive)	4.21 µM (inactive)	10.9 µM (inactive)	14.1 µM (inactive)	13.2 µM (inactive)	12.9 µM (inactive)	4.34 µM (inactive)	8.18 µM (inactive)	10.5 µM (inactive)	16.6 µM (inactive)	4.18 µM (inactive)	18.3 µM (inactive)	3.21 µM (inactive)	10.9 µM (inactive)	2.51 µM (inactive)	–
CNc1nc2n(CCO)c(-c3ccccc3)c(-c3ccccc3)nc-2c(=O)n1	> 50 µM (inactive)	> 50 µM (inactive)	> 50 µM (inactive)	> 50	> 50 µM (inactive)	–	> 50 µM (inactive)	> 50 µM (inactive)	> 50 µM (inactive)	> 50 µM (inactive)	> 50 µM (inactive)	14.8 µM (inactive)	> 50 µM (inactive)	> 50 µM (inactive)	> 50 µM (inactive)	> 50 µM (inactive)	–	> 50 µM (inactive)	> 50 µM (inactive)	> 50 µM (inactive)
CC(C)C(Nc1c2ccccc2[n+]([O-])c2ccccc12)C(=O)O (stereo unspecified)	> 100 µM (inactive)	> 100 µM (inactive)	47.8 µM (inactive)	45.9	> 100 µM (inactive)	> 100 µM (inactive)	> 100 µM (inactive)	91.2 µM (inactive)	35.6 µM (inactive)	36 µM (inactive)	> 100 µM (inactive)	> 100 µM (inactive)	65.8 µM (inactive)	> 100 µM (inactive)	> 100 µM (inactive)	> 100 µM (inactive)	61.9 µM (inactive)	19.7 µM (inactive)	–	–
COC(=O)C#CC1(O)C=CC(=O)C=C1	34 µM (inactive)	0.209 µM (active)	0.106 µM (active)	0.248	0.253 µM (active)	–	0.843 µM (active)	1.25 µM (inactive)	5.07 µM (inactive)	1.57 µM (inactive)	2.71 µM (inactive)	0.367 µM (active)	3.13 µM (inactive)	1.42 µM (inactive)	0.299 µM (active)	1.18 µM (inactive)	–	0.687 µM (active)	0.0519 µM (active)	0.525 µM (active)
CCN(CC)CC(C(=O)Nc1c(C)cccc1C)/C(C)=N\NC(=O)C[N+](C)(C)C (stereo unspecified)	–	> 100 µM (inactive)	–	> 100	> 100 µM (inactive)	> 100 µM (inactive)	> 100 µM (inactive)	> 100 µM (inactive)	> 100 µM (inactive)	> 100 µM (inactive)	> 100 µM (inactive)	> 100 µM (inactive)	> 100 µM (inactive)	> 100 µM (inactive)	> 100 µM (inactive)	> 100 µM (inactive)	> 100 µM (inactive)	> 100 µM (inactive)	> 100 µM (inactive)	–
O=C(O)CCc1ccc(-c2ccccc2)[nH]1	> 100 µM (inactive)	> 100 µM (inactive)	70.6 µM (inactive)	> 100	> 100 µM (inactive)	–	> 100 µM (inactive)	> 100 µM (inactive)	> 100 µM (inactive)	> 100 µM (inactive)	> 100 µM (inactive)	> 100 µM (inactive)	> 100 µM (inactive)	> 100 µM (inactive)	> 100 µM (inactive)	> 100 µM (inactive)	–	> 100 µM (inactive)	> 100 µM (inactive)	> 100 µM (inactive)
